# Data: patent US9006205B2, “Antisense oligonucleotides against neutral sphingomyelinase and neutral sphingomyelinase inhibitor GW4869 for degenerative neurological disorders” (Rush University Medical Center, priority 2011, dated 2015)
# Legend:
# Type in all cases: cell-based
# primary human neurons [1] = assay: MTT metabolism of neurons in astrocyte-neuron trans-well; conditions: neurons pretreated with oligonucleotide; 18 h of stimulation
# Experimental: (§1) Primary human astrocytes were grown to confluency on inserts. After 24 h of stimulation by the combination of Aβ (1 μM) and IL-Iβ (10 ng/ml), inserts were washed thrice with HBSS and then placed onto the wells containing primary human neurons. Therefore, in this trans-well model, although neurons and astrocytes face each other, they are separable and the effect of soluble factors released from activated astrocytes on neurons can be studied allowing analysis of neuronal and glial populations separately.
# Mitochondrial activity was measured with the 3-(4,5-dimethylthiazol-2-yl)-2,5-diphenyltetrazolium bromide (MTT) assay (Sigma). The cells were grown on 24-well culture plates with 500 μl of medium and treated with various reagents according to the experimental design. At the end of the treatment period, 300 μl of culture medium were removed from each well, and 20 μl of MTT solution (5 mg/ml) were added and incubated for 1 h.
# (§2) Primary human neurons were incubated with antisense (ASO) and scrambled oligonucleotides (ScO) against N-SMase (A) and A-SMase (FIG. 2B). After 48 h, neurons were analyzed for protein expression of N-SMase and A-SMase. In FIG. 2C, primary human astrocytes seeded in inserts were stimulated by the combination of Aβ and IL-1β as described above. […] After 6 h of treatment with activated astrocytes, apoptotic events in neurons were detected by TUNEL. In FIG. 2D, TUNEL-positive cells were counted manually in four different images of each of three coverslips by three individuals blinded to the experiment. […] Values obtained from the control group served as 100%, and data obtained in other groups were calculated as percent of control accordingly. […]
# (§3) In FIGS. 3A-3E, primary human astrocytes seeded in inserts were stimulated by the combination of Aβ and IL-Iβ as described above. […] In FIG. 3A, after 1 h, activity of N-SMase was measured in total cell extracts of neurons as described above. […] Values obtained from the control group served as 100%, and data obtained in other groups were calculated as percent of control accordingly.
# primary human neurons [2] = assay: LDH release from neurons in astrocyte-neuron trans-well; conditions: neurons pretreated with oligonucleotide; 18 h of stimulation
# Experimental: as §1
# The activity of lactate dehydrogenase (LDH) was measured using the direct spectrophotometric assay using an assay kit from Sigma.
# as §2, with “experiment. In FIG. 2E, after 18 h of stimulation, cell viability was examined by the metabolism of MTT and the release of LDH.” for “experiment.”
# as §3, with “accordingly. […] Primary human neurons were treated with 25 μM DETA-NONOate (a NO donor) and at different time points of treatment, activities of N-SMase (FIG. 3D) and A-SMase (FIG. 3E) were monitored. ^ap<0.001 vs control (0 h).” for “accordingly.”
# iNOS = iNOS mRNA expression (RT-PCR, real-time PCR) in activated primary human astrocytes; conditions: oligonucleotide 40 h, then 6 h of stimulation
# Experimental: (§4) Total RNA was isolated from human primary astrocytes using RNA-Easy Qiagen kit following manufactures protocol. To remove any contaminating genomic DNA, total RNA was digested with DNase. Semi-quantitative RT-PCR was carried out as described earlier using oligo (dT) 12-18 as primer and MMLV reverse transcriptase (Clontech) in a 20-μl reaction mixture. The resulting cDNA was appropriately diluted, and diluted cDNA was amplified using Titanium Taq polymerase and the following primers for human proinflammatory genes: […]
# It was performed using the ABI-Prism7700 sequence detection system (Applied Biosystems, Foster City, Calif.) using TaqMan Universal Master Mix and optimized concentrations of FAM-labeled probe, forward and reverse primers (Applied Biosystems) as described earlier. […] Data were processed by the ABI Sequence Detection System 1.6 software and analyzed by ANOVA.
# Cells pretreated with ASO and ScO against N-SMase and A-SMase for 40 h were stimulated with (Aβ+IL-1β) under serum-free condition. After 24 h of stimulation, the concentration of nitrite was measured in supernatants (FIG. 4A) by Griess reagent. […] After 6 h, the expression of iNOS mRNA was analyzed by both semi-quantitative RT-PCR (C) and quantitative real-time PCR (FIG. 4D). The expression of TNF-a, IL-6 and IL-Iβ mRNAs were analyzed by semi-quantitative RT-PCR (FIG. 4E). […]
# [3] = system: TNF-α, IL-1β and IL-6 mRNAs; assay: TNF-α, IL-1β and IL-6 mRNA expression (RT-PCR) in activated primary human astroglia; conditions: oligonucleotide 40 h, then 6 h of stimulation
# Experimental: as §4
# Cells pretreated with ASO and ScO against N-SMase and A-SMase for 40 h were stimulated with (Aβ+IL-1β) under serum-free condition. After 24 h of stimulation, the concentration of nitrite was measured in supernatants (FIG. 4A) by Griess reagent. […] Cells were treated with ASO/ScO for 40 h followed by stimulation with the combination of fibrillar Aβ and IL-Iβ as above. After 6 h, the expression of iNOS mRNA was analyzed by both semi-quantitative RT-PCR (C) and quantitative real-time PCR (FIG. 4D). The expression of TNF-a, IL-6 and IL-Iβ mRNAs were analyzed by semi-quantitative RT-PCR (FIG. 4E). Results are mean±SD of three different experiments. ^ap<0.001 vs control; ^bp<0.001 vs (Aβ+IL-Iβ).
# NF-κB = assay: EMSA of NF-κB DNA-binding activity in primary human astroglia; conditions: 1 μM oligonucleotide 40 h; 1 h of stimulation
substance,measurement,setting,value
"5′- CAGCGAGCCCGTCCACCAGCC -3′ (DNA, all phosphorothioate, methylation of C not given here) [ASO against N-SMase, ID; NO.: 12]",activated astroglia-mediated loss of MTT metabolism,primary human neurons [1],effectively prevented
same,LDH release from neurons,primary human neurons [2],significant reduction
same,(Aβ+IL-1β)-induced expression of iNOS mRNA,iNOS,strongly inhibited
same,"(Aβ+IL-1β)-induced expression of TNF-α, IL-1β and IL-6 mRNAs",[3],abrogated
same,(Aβ+IL-1β)-induced DNA-binding activity of NF-κB,NF-κB,suppressed
